{"source": "patent US20040072746A1", "about": "“Inhibitors of monocarboxylate transport” (priority 2001, published 2004)", "key": {"MCT1": {"biological_target": "T1, MCT1 (Homo sapiens, UniProt P53985, D490E)", "T1 sequence (P53985 1-500 D490E)": "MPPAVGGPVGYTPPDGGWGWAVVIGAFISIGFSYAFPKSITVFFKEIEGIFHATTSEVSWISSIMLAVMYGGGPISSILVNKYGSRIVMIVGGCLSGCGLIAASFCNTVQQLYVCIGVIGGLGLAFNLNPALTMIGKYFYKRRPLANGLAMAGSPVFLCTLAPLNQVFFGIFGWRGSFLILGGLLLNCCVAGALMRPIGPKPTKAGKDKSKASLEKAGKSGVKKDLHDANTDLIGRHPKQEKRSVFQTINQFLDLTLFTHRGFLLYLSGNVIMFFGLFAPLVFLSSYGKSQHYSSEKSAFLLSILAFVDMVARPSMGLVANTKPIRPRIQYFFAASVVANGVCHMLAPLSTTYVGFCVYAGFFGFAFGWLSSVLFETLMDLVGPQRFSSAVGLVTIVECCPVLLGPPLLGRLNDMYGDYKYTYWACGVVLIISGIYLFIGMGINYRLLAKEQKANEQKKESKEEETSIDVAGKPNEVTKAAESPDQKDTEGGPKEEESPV", "assay": "MCT filter binding assay, yeast membranes, radioligand specific binding", "design": "made in house; host or cells: Saccharomyces cerevisiae BY4742 (jen1 deletion), membrane preparation; plasmid pACES14-hMCT1", "conditions": "~2.5 nM radioligand", "experimental": "For yeast cells transformed with expression plasmids containing the human MCT 1-4 ORFs the ability of membrane preparations to bind radioligand was determined using a single ligand concentration/multi protein concentration binding assay. This generated an estimate of the amount of active binding protein present in each membrane preparation. The ligand concentration used will give an estimate of Bmax that is approximately 90% of the true value. 10 μl of ligand A, B or C that had been diluted 50 fold with assay buffer (50 mM HEPES, 0.1 mM EDTA, 0.15 M NaCl, pH 7.5, 0.5% BSA) was dispensed into wells of a polypropylene microtitre plate. This gives a final radiolabelled ligand concentration of ˜2.5 nM. […] The membranes were diluted to give a known amount/180 μl assay buffer. This is typically in the […] range. For the membranes with high binding site number a more dilute membrane preparation should be added. 180 μl of each membrane solution was then added to each well and incubated at 2 hours at room temperature with shaking. The membranes were harvested onto GF-B filter plates and washed with assay buffer without BSA, dried, scintillant added and counts detected using the relevant program for each ligand on a Packard Top Count plate reader."}, "Jurkat T-cell membranes": {"tested_on": "Jurkat T-cell membranes", "assay_type": "binding, human", "experimental": "Cells were harvested by centrifugation at 1500 g for 10 minutes. The cell pellets were washed twice with phosphate buffered saline (PBS) and centrifuged as above. The final cell pellet was resuspended in lysis buffer (50 mM HEPES (pH 7.8), 50 mM KCl, 10% glycerol, 0.1 mM EDTA, 1 mM DTT) and lysed by nitrogen cavitation. Unlysed cells and nuclei were removed by centrifugation at 1500 g for 10 minutes. The supernatant was then centrifuged at 100,000 g for 30 minutes at 4° C., and the pellet resuspended and homogenised in assay buffer (50 mM HEPES (pH 7.5), 1 mM EDTA, 150 mM NaCl). Aliquots of membrane preparation were stored at −80° C. until use.\nFrozen Jurkat cell membranes were thawed on ice and then homogenised. Wheatgerm agglutinin-linked Scintillation Proximity Assay beads (Amersham) were rehydrated in assay buffer to a concentration of 100 mg/ml. 2 ml of Jurkat membranes were added per 0.5 ml (50 mg) of SPA beads and incubated overnight with constant agitation to allow the beads to coat with Jurkat membranes. […] 10 μl of test compound and 10 μl of radioligand were incubated with 180 μl of SPA beads and membranes (0.04 mg beads). […] The plates were incubated for 3 hours at room temperature before quantitation of radioactivity proximal to the SPA beads by scintillation counting."}}}
{"compound": "CC(C)Cc1nn(C)c(=O)c2c(SCCCO)n(Cc3ccccc3[125I])cc12", "note": "[Ligand A, 2,6-Dihydro-7-[(3-hydroxypropyl)thio]-6-[(2-[^125I]iodophenyl)methyl]-2-methyl-4-(2-methylpropyl)-1H-pyrrolo[3,4-d]pyridazin-1-one]", "values": [{"measurement": "Specific binding (cpm) Average", "setting": "MCT1; MCT1 (2 ug)", "result": 88841, "unit": "cpm"}, {"measurement": "Specific binding (cpm) Average", "setting": "MCT1; MCT1 (20 ug)", "result": 177453, "unit": "cpm"}, {"measurement": "125I-ligand A binding (cpm), Specific binding (Total - Non-specific)", "setting": "Jurkat T-cell membranes", "result": 1991, "unit": "cpm"}, {"measurement": "125I-ligand A binding (cpm), Total binding", "setting": "Jurkat T-cell membranes; approximately 0.1 nM radioligand, vehicle alone", "result": "2490 ± 32", "unit": "cpm"}, {"measurement": "125I-ligand A binding (cpm), Non-specific binding", "setting": "Jurkat T-cell membranes; in the presence of 1 μM Ligand 1", "result": "499 ± 20", "unit": "cpm"}]}
